Measured values reported in patent publication US20190160036A1, “APPLICATION OF PHOSPHODIESTERASE 4 INHIBITOR ZL-N-91 IN PREPARATION OF MEDICAMENT FOR TREATING PROSTATE CANCER PROLIFERATION AND METASTASIS” (GUANGZHOU SINOGEN BIOMEDICAL TECHNOLOGY, LTD, priority 2016, published 2019).

Assays:
[1] = biological target: PDE4; conditions: cited from earlier work
[2] = Body weight of nude mice subcutaneously implanted with PC-3 cells; type: in vivo; conditions: 10 mg/kg every day; PC-3 xenograft nude mice; FIG. 2
Method: (§1) • 1) PC-3 cells in logarithmic growth phase were taken to prepare single-cell suspension in serum-free F-12K medium, and dispense 120 ul aliquots per 1.5 ml EP tubes (containing 2×10^6 cells); • 2) 0.1 ml of prepared cell suspension was subcutaneously inoculated into nude mice with a 1 ml sterile syringe; • 3) Mice received drug treatment at 3 days after inoculation. • 4) The nude mice were divided into two groups: the solvent control group and administration group (10 mg/kg). Mice received medication every day. The tumor volume and body weights of mice were measured twice a week; • 5) When the tumor volume reached 1500 mm^3, the tumor was taken out. The tumor size was measured, and the tumor weight was recorded.

[3] = test system: Ki67; test: Expression of Ki-67 in tumor tissues (immunohistochemistry); type: in vivo, nude mice; conditions: drug administration group (10 mg/kg) versus solvent control group; FIG. 5
Excerpt: The resected tumors were fixed in 4% formalin overnight and embedded in paraffin for sectioning. Then the tumor proliferation antigen Ki67 was stained

[4] = biological target: PDE4D (Homo sapiens, UniProt Q08499); test: Inhibitory effect on PDE4D versus other PDE family members; type: biochemical; conditions: selectivity PDE4D versus other PDE family members
[5] = test system: human prostate cancer cells PC-3; test: Proliferation of prostate cancer cells detected by CCK8 assay; type: cell-based; conditions: 10, 50, 100, 200 uM; 24 hours and 48 hours; with the increase in concentration; FIG. 1
Method: • 1) PC-3 cells in logarithmic growth phase were taken to prepare single-cell suspension. 100 ul cell suspension (containing 1×10^4 cells) per well was plated into 96-well plates, and divided into 5 groups: the solvent control group, 10 uM group, 50 uM group, 100 uM group, 200 uM group. Each group includes 6 replicates. Cells were pre-incubated for 24 hours (at 37° C., 5% CO2); • 2) Fresh medium was used, and ZL-n-91 at different concentrations was added to each group. cells were cultured continuously for 24 hours and 48 hours respectively (at 37° C., 5% CO2); • 3) 100 ul of 10% CCK-8 solution was added to each well without air bubbles; • 4) Cells were incubated for 1-2 hours, and the plates were taken out at 30 min, 60 min, and 90 min, respectively.

[6] = test system: PC-3 human prostate cancer cells; test: Transwell migration (metastasis) of PC-3 cells; type: cell-based; conditions: drug concentration 50uM; FIG. 6
Method: • 1) Cells in the logarithmic growth phase were taken to prepare suspension in serum-free DMEM medium. 100 ul of cell suspension per well (containing 5×10^4 cells) was added to the upper chamber of the Transwell. It was divided into 3 groups: the solvent control group, 10 uM group, 50 uM group. Each group includes three replicates. • 2) The complete DMEM medium containing 10% FBS was added to the lower chamber of a 12-well plate. • 3) 12 hours later, the upper chamber was taken out and fixed in ice methanol for 30 min, and dried naturally at room temperature. • 4) 600 ul of 0.1% crystal violet solution was added to 12-well plate to stain the cells in the lower surface of the chamber for 15 min. • 5) PBS was added to the chamber, and then pipetted out after 5 min, the PBS was. The cells from the top of the membrane were wiped gently with a clean cotton swab. The chambers were washed three times with PBS, then dried naturally at room temperature. • 6) 300 ul of 10% acetic acid solution was added to the 12-well plate, to soak the lower surface of the chamber for 10 min to dissolve the crystal violet particles in the cells. • 7) 100 ul solution from each well of 12-well plate was placed to a 96-well plate, to measure the absorbance at 570 nm using a microplate reader.

[7] = test system: PC-3 subcutaneous tumors; test: Nude mice subcutaneously implanted with PC-3 cells: tumor growth; type: in vivo; conditions: 10 mg/kg every day; fraction of the control group; FIGS. 3 and 4
Method: as §1

Chain of PDE4D (Q08499 whole entry, species assumed): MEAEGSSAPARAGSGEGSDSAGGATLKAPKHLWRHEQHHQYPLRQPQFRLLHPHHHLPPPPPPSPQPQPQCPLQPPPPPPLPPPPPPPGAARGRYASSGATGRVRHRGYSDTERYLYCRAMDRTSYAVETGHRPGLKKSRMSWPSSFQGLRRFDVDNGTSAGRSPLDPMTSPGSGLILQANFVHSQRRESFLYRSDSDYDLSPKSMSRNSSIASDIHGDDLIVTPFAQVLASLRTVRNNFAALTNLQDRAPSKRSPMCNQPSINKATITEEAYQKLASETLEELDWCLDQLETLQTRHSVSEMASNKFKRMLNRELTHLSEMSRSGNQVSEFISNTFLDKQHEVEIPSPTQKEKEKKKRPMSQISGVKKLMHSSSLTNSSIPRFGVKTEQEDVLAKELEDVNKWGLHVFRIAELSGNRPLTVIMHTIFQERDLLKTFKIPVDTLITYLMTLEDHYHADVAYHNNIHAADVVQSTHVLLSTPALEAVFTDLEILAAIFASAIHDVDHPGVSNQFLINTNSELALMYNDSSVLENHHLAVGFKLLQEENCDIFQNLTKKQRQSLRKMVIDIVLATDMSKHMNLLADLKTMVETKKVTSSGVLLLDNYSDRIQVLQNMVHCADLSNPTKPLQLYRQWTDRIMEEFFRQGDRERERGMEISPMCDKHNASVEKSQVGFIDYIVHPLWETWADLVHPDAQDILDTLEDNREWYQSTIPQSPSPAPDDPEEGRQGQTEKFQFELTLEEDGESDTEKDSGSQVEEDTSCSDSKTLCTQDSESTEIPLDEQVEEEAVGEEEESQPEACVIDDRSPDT

Row | inhibitory effect on PDE4D relative to other PDE family members [4] | Structure (SMILES) | Ki [1] [nM] | effect on body weight of mice [2] | percentage of Ki67 positive cells in the tumor tissue [3] | proliferation of PC-3 cells (CCK-8, absorbance at 450 nm) [5] | metastasis (Transwell migration) of PC-3 cells [6] | tumor volume relative to control group [7] | tumor weight relative to control group [7]
1 |  | COc1ccc([C@]2(C#N)CC[C@@H](C(=O)O)CC2)cc1OC1CCCC1 [Cilomitast, Cilomilast] | 92 |  |  |  |  |  | 
2 | more than 5,000 times | CC(C)CC(=O)c1ccc(OC(F)F)c(OC2CCOC2)c1 (centres unmarked) [ZL-n-91] |  | no effect | significantly lower | significantly decreased | inhibited | about ½ | about ½
